{"source": "patent US6229055A", "about": "“Synthesis of fluorinated xanthene derivatives” (Molecular Probes, Inc., priority 2000, dated 2001)", "key": {"[1]": {"test": "Solubility in water", "assay_type": "physicochemical", "source_text": "(§1) In another substrate embodiment, the dye compounds are fluorinated dyes for which R^11 is H, that are substrates for oxidative enzymes and other reactive oxidizing agents, particularly for peroxidase enzymes. […] Unlike their non-fluorinated analogs, fluorinated dihydrofluorescein and dihydrorhodol, are stable in aqueous solutions without the use of blocking groups on the hydroxyl or amine functions that typically reduce aqueous solubility. For example, Compound 84 (4,5,6,7-tetrafluorodihydrofluorescein, Example 85) is soluble in water to at least 2 mM, while existing diacetate fluorogenic peroxidase substrates are typically soluble only in the single-digit μM concentration range."}, "[2]": {"test": "Stability toward hydrogen peroxide without peroxidase", "assay_type": "physicochemical", "details": "absence of horseradish peroxidase, 1 mM substrate, OPD buffer pH 5.5", "source_text": "as §1\n(§2) A 2 mM solution (0.5 mL) of TFDHF is prepared in water. OPD buffer (0.5M Phosphate-citrate buffer) without hydrogen peroxide (pH 5.5, 0.5 mL) is added, resulting in a 1 mM concentration of substrate. Minor background fluorescence, indicating the presence of some contaminating oxidized dye, serves to provide a fluorescence signal at time 0. […] After incubation at room temperature in darkness for 25 minutes, the reaction solution is diluted 1:20 into potassium phosphate buffer at pH 8, and fluorescence emission spectra are recorded."}, "[3]": {"biological_target": "T1, Horseradish Peroxidase (HRP) (Armoracia rusticana, UniProt P00433)", "T1 sequence (P00433 31-353)": "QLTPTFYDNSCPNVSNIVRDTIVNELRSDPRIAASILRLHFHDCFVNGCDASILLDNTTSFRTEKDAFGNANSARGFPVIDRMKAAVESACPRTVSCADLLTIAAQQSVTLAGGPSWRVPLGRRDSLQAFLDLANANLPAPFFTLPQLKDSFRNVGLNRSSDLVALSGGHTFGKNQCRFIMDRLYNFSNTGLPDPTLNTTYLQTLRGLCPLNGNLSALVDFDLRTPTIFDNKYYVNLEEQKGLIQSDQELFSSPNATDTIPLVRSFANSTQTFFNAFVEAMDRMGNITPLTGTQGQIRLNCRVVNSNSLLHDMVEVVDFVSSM", "test": "Detection of horseradish peroxidase activity in vitro", "assay_type": "biochemical", "details": "1 mM substrate, OPD buffer with hydrogen peroxide, HRP 1 μL, 10^-4 Units", "protocol": "as §2, with “OPD buffer (0.5M Phosphate-citrate buffer) without hydrogen peroxide (pH 5.5, 0.5 mL) is added, resulting in a 1 mM concentration of substrate.” left out"}, "[4]": {"biological_target": "T2, acid β-galactosidase from bovine testes (Bos taurus, UniProt Q58D55)", "T2 construct": "from tissue; host or cells: bovine testes", "T2 sequence (Q58D55 28-653)": "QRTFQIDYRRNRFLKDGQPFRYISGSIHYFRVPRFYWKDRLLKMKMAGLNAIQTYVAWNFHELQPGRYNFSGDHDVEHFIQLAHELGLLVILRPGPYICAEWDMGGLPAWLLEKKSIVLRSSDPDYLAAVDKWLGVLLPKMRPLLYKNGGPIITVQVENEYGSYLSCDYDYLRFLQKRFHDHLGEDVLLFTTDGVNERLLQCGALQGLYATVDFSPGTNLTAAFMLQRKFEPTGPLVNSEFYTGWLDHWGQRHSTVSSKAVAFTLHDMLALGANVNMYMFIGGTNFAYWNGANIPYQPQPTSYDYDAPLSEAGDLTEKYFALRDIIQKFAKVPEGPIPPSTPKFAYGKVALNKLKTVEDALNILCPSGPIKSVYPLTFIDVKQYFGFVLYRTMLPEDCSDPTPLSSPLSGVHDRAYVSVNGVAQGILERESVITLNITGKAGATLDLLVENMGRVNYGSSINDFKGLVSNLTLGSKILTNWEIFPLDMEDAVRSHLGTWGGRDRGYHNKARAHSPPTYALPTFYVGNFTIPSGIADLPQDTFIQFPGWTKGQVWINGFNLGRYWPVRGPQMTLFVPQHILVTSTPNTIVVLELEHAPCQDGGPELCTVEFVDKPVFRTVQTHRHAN", "test": "Detection of acid β-galactosidase activity", "assay_type": "biochemical", "details": "50 μM substrate, 4.6 nM enzyme, pH 4.5, excitation 490 nm, emission 512 nm", "protocol": "The fluorescence resulting from the action of acid β-galactosidase from bovine testes on fluorescein digalactoside (FDG) and DFFDG is compared. The fluorescence increase at 512 nm when excited at 490 nm is measured versus time for 50 μM substrate with 4.6 nM enzyme in assay buffer (200 mM sodium phosphate +75 mM citric acid, pH 4.5). The initial rate of fluorescence production from DFFDG is 3.0 times that obtained using FDG."}, "[5]": {"test": "Fluorescence response of heavy metal ion indicator", "assay_type": "binding", "details": "1 micromolar compound, 5 micromolar Cu(I), 5 mM MOPS buffer pH 7.2", "protocol": "The tetramethyl ester intermediate is then dissolved in 15 mL 1,4-dioxane and concentrated ammonium hydroxide (0.8 mL) is added in one portion. The reaction mixture is centrifuged and the orange pellet is dissolved in 5 mL pure water, then applied to a column of lipophilic SEPHADEX […] resin and eluted with pure water. Pure column fractions are combined, frozen and lyophilized to give phenanthroline conjugate, dipotassium salt (Compound 106) as an orange powder. κ=54,479 cm^-1 M^-1 in 10 mM EGTA, 100 mM KCl, 10 mM MOPS buffer at pH 7.20."}}, "data": [{"smiles": "O=C(O)c1c(F)c(F)c(F)c(F)c1C1c2ccc(O)cc2Oc2cc(O)ccc21", "note": "[Compound 84, 4,5,6,7-tetrafluorodihydrofluorescein]", "values": [{"measurement": "soluble in water", "setting": "[1]", "value": "at least 2 mM"}, {"measurement": "reaction with hydrogen peroxide alone", "setting": "[2]", "value": "stable toward reaction of hydrogen peroxide during the period of analysis"}, {"measurement": "reaction with hydrogen peroxide alone", "setting": "[2]; listed as TFDHF", "value": "no detectable fluorescence increase"}, {"measurement": "fluorescence production on addition of HRP", "setting": "[3]", "value": "immediate production of bright yellow fluorescence"}]}, {"smiles": "O=C1OC2(c3cc(F)c(O[C@@H]4O[C@H](CO)[C@H](O)[C@H](O)[C@H]4O)cc3Oc3cc(O[C@@H]4O[C@H](CO)[C@H](O)[C@H](O)[C@H]4O)c(F)cc32)c2ccccc21", "note": "[Compound 94, 2',7'-difluorofluorescein, bis-O-galactoside]", "values": [{"measurement": "initial rate of fluorescence production relative to FDG", "setting": "[4]", "value": 3.0, "unit": "times"}]}, {"smiles": "O=C(Nc1cc2cccnc2c2ncccc12)c1ccc2c(c1)C(=O)OC21c2cc(F)c(O)cc2Oc2cc(O)c(F)cc21", "note": "[Compound 106]", "values": [{"measurement": "decrease in emission intensity at 523 nm", "setting": "[5]", "value": 5, "unit": "fold"}]}]}
